# Experimental data as given in patent publication US12528816B2, “Substituted imidazo [1,2-b] pyridazines and [1, 2, 4] triazolo [ 4,3-b] pyridazines as camkii inhibitors” (Cardurion Pharmaceuticals, INC., priority 2020, dated 2026).
# pIC50: −log10 of the molar value.
# Biological target: T1, human CaMKIIδ (Homo sapiens, UniProt Q13557)
# T1 construct: Full-length, glutathione-S-transferase(GST)-tagged, human CaMKIIδ was purchased from Carna Biosciences; purchased Carna Biosciences (CaMKIIδ); Wako Pure Chemical Industries (calmodulin) 02-111
# Test: Evaluation of in vitro CaMKII inhibitory activity (binding assay, TR-FRET)
# Conditions: human CaMKIIδ, TR-FRET binding assay; class symbols A/B/C; read-out: Act (CaMKII inhibitory activity, binding assay)
# In short: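 Inhibitors, in eight concentrations of 4-fold dilution, were incubated 1 h at room temperature with a protein–fluorescent probe premix preformed 30 min on ice, containing calmodulin and terbium anti-GST antibody. Displacement read by TR-FRET in duplicate; IC50 by logistic fitting.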
row,Compound,pIC50
1,C[C@@H](Cn1cnnn1)Oc1cc(-c2ccn3ncc(-c4cccs4)c3n2)ccc1F [compound 3],> 8.00
2,"C[C@@H](Cn1cnnn1)Oc1cc(-c2ccc3ncc(-c4ccccc4C#N)n3n2)ccc1F [Example 121, 2-[6-(4-fluoro-3-{[(2S)-1-(1H-tetrazol-1-yl)propan-2-yl]oxy}phenyl)imidazo[1,2-b]pyridazin-3-yl]benzonitrile]",> 8.00
3,COC(=O)c1cccc(-n2cnc3ccc(-c4ccc(F)c(O[C@@H](C)Cn5cnnn5)c4)nc32)c1C#N [compound 179],7.00 to 8.00
4,C[C@@H](Cn1cnnn1)Oc1cc(-c2ccc3ncc(-c4cccc(OCCN5CCC5)c4C#N)n3n2)ccc1F [compound 215],> 8.00
5,C[C@@H](Cn1cnnn1)Oc1cccc(-c2ccn3ncc(-c4cccc(C(=O)N5CCn6ccnc6C5)c4)c3n2)c1 [compound 109],7.00 to 8.00
6,C[C@@H](Cn1cnnn1)Oc1cc(-c2ccn3ncc(-c4cccc(N5CCOCC5)c4)c3n2)ccc1F [compound 47],7.00 to 8.00
7,C[C@@H](Cn1cnnn1)Oc1cc(-c2ccc3ncc(-c4cc(C(N)=O)ccc4C(N)=O)n3n2)ccc1F [compound 184],< 7.00
8,CC(=O)Nc1ccc(-c2cnn3ccc(-c4ccc(F)c(O[C@@H](C)Cn5cnnn5)c4)nc23)cc1 [compound 38],> 8.00
9,C[C@@H](Cn1cnnn1)Oc1cc(-c2ccn3ncc(-c4ccccc4F)c3n2)ccc1F [compound 52],> 8.00
10,C[C@@H](Cn1cnnn1)Nc1cncc(-c2ccc3ncc(-c4cc(F)ccc4C#N)n3n2)n1 [compound 484],> 8.00
11,C[C@@H](Cn1cnnn1)Oc1cccc(-c2ccn3ncc(-c4cccc(C(=O)NC5CN(C)C5)c4)c3n2)c1 [compound 70],> 8.00
12,C[C@@H](Cn1cnnn1)Oc1cccc(-c2ccn3ncc(-c4cccc(C(=O)NC5CCN(C)CC5)c4)c3n2)c1 [compound 98],> 8.00
13,C[C@@H](Cn1cnnn1)Oc1cccc(-c2ccn3ncc(-c4cccc(C(=O)Nc5cccnc5)c4)c3n2)c1 [compound 84],> 8.00
14,C[C@@H](Cn1cnnn1)Oc1cc(-c2ccn3ncc(-c4cnn(C)c4C#N)c3n2)ccc1F [compound 163],> 8.00
15,C[C@@H](Cn1cnnn1)Oc1cc(-c2ccc3ncc(-c4cc(Br)cc5c4OCC5)n3n2)ccc1F [compound 187],> 8.00
16,CC(C)CCNC(=O)c1cccc(-c2cnn3ccc(-c4cccc(O[C@@H](C)Cn5cnnn5)c4)nc23)c1 [compound 64],> 8.00
17,C[C@@H](Cn1cnnn1)Oc1cc(-c2ccc3ncc(-c4cccc(N)c4C#N)n3n2)ccc1F [compound 181],> 8.00
18,"C[C@@H](Cn1cnnn1)Oc1cc(-c2ccc3ncn(-c4ncccc4C#N)c3n2)ccc1F [Example 150, 2-[5-(4-fluoro-3-{[(2S)-1-(1H-tetrazol-1-yl)propan-2-yl]oxy}phenyl)-3H-imidazo[4,5-b]pyridin-3-yl]pyridine-3-carbonitrile]",> 8.00
19,C[C@@H](Cn1cnnn1)Oc1cc(-c2ccc3ncc(-c4cccc(N=S(C)(C)=O)c4C#N)n3n2)ccc1F [compound 191],> 8.00
20,C[C@@H](Cn1cnnn1)Nc1ccnc(-c2ccc3ncc(-c4cc(F)ccc4C#N)n3n2)c1 [compound 483],> 8.00
21,C[C@@H](Cn1cnnn1)Oc1cc(-c2ccn3ncc(-c4cnn(CCN5CCOCC5)c4)c3n2)ccc1F [compound 145],7.00 to 8.00
22,C[C@@H](Cn1cnnn1)Oc1cc(-c2ccc3ncc(-c4cccs4)n3n2)ccc1F [compound 60],> 8.00
23,C[C@@H](Cn1cnnn1)Oc1cc(-c2ccn3ncc(-c4ccco4)c3n2)ccc1F [compound 18],> 8.00
24,C[C@@H](Cn1cnnn1)Oc1cc(-c2ccc3ncc(-c4cc(C#N)ccc4C#N)n3n2)ccc1F [compound 185],> 8.00
25,C[C@@H](Cn1cnnn1)Oc1cc(-c2ccc3ncn(-c4cccc(C(=O)O)c4C#N)c3n2)ccc1F [compound 189],7.00 to 8.00
26,C[C@@H](Cn1cnnn1)Oc1cccc(-c2ccn3ncc(-c4cccc(C(=O)NCc5ccncc5)c4)c3n2)c1 [compound 93],> 8.00
27,CC(=O)NCCCNC(=O)c1cccc(-c2cnn3ccc(-c4cccc(O[C@@H](C)Cn5cnnn5)c4)nc23)c1 [compound 102],> 8.00
28,C[C@@H](Cn1cnnn1)Oc1cc(-c2ccc3ncc(-c4cccc(OCC(F)F)c4C#N)n3n2)ccc1F [compound 206],> 8.00

# Same assay, conditions: in vitro CaMKII inhibitory activity (binding assay), human CaMKIIδ; read-out: Act
row,Compound,pIC50
1,C[C@@H](Cn1cnnn1)Oc1cc(-c2ccn3ncc(-c4cc(F)ccc4C#N)c3n2)ccn1 [compound 319],> 8.00
2,"C[C@@H](Cn1cnnn1)Oc1cccc(-c2ccc3ncn(-c4cc(C(F)F)ccc4C#N)c3n2)c1 [Example 383, 4-(difluoromethyl)-2-[5-(3-{[(2S)-1-(1H-tetrazol-1-yl)propan-2-yl]oxy}phenyl)-3H-imidazo[4,5-b]pyridin-3-yl]benzonitrile]",> 8.00
3,C[C@@H](Cn1cnnn1)Oc1cc(-c2ccc3ncc(-c4cc(F)c[nH]c4=O)n3n2)ccc1F [compound 314],> 8.00
4,C[C@@H](Cn1cnnn1)Oc1cc(-c2ccc3ncc(-c4nccnc4C#N)n3n2)ccc1F [compound 290],> 8.00
5,C[C@@H](Cn1cnnn1)Oc1cc(F)cc(-c2ccc3ncc(-c4ncccc4C#N)n3n2)c1 [compound 296],> 8.00
6,C[C@@H](Cn1cnnn1)Oc1cncc(-c2ccc3ncn(-c4cccc(Cl)c4C#N)c3n2)n1 [compound 446],< 7.00
7,Cc1ccnc(-c2cnc3ccc(-c4cccc(O[C@@H](C)Cn5cnnn5)c4)nn23)c1C#N [compound 378],> 8.00
8,"C[C@@H](Cn1cnnn1)Oc1cccc(-c2ccn3nc(F)c(-c4cc(F)ccc4C#N)c3n2)c1 [Example 379, 4-fluoro-2-[2-fluoro-5-(3-{[(2S)-1-(1H-tetrazol-1-yl)propan-2-yl]oxy}phenyl)pyrazolo[1,5-a]pyrimidin-3-yl]benzonitrile]",> 8.00
9,C[C@@H](Cn1cnnn1)Oc1cccc(-c2ccc3ncc(-c4nc(F)c(F)cc4C#N)n3n2)c1 [compound 451],> 8.00
10,"COc1ccc(C#N)c(-c2cnc3ccc(-c4cccc(O[C@@H](C)Cn5cnnn5)c4)nn23)n1 [Example 313, 6-methoxy-2-[6-(3-{[(2S)-1-(1H-tetrazol-1-yl)propan-2-yl]oxy}phenyl)imidazo[1,2-b]pyridazin-3-yl]pyridine-3-carbonitrile]",> 8.00
11,C[C@@H](Cn1cnnn1)Oc1cccc(-c2ccc3ncc(-c4ccc(F)c(F)c4C#N)n3n2)n1 [compound 460],7.00 to 8.00
12,COc1ccnc(-c2cnc3ccc(-c4cncc(O[C@@H](C)Cn5cnnn5)n4)nn23)c1C#N [compound 429],< 7.00
13,COc1cc(F)cc(-n2cnc3ccc(-c4cncc(O[C@@H](C)Cn5cnnn5)n4)nc32)c1C#N [compound 396],> 8.00
14,C[C@@H](Cn1cnnn1)Oc1cccc(-c2ccc3ncn(-c4cc(C(F)F)ccc4C#N)c3n2)n1 [compound 382],< 7.00
15,COC(=O)c1sccc1-c1cnc2ccc(-c3ccc(F)c(O[C@@H](C)Cn4cnnn4)c3)nn12 [compound 238],7.00 to 8.00
16,"C[C@@H](Cn1cnnn1)Oc1cccc(-c2ccc3ncc(-c4cncnc4C#N)n3n2)c1 [Example 267, 5-[6-(3-{[(2S)-1-(1H-tetrazol-1-yl)propan-2-yl]oxy}phenyl)imidazo[1,2-b]pyridazin-3-yl]pyrimidine-4-carbonitrile]",> 8.00
17,C[C@@H](Cn1cnnn1)Oc1cccc(-c2ccc3ncc(-c4cc(F)cnc4OCC(F)(F)F)n3n2)c1 [compound 338],> 8.00
18,Cc1c(-c2cnc3ccc(-c4ccc(F)c(O[C@@H](C)Cn5cnnn5)c4)nn23)c(C(F)(F)F)nn1C [compound 266],< 7.00
19,C[C@@H](Cn1cnnn1)Oc1cccc(-c2ccc3ncc(-c4cc(=O)n(C)cc4C#N)n3n2)c1 [compound 348],> 8.00
20,"C[C@@H](Cn1cnnn1)Oc1cccc(-c2ccc3ncc(-c4ccc[nH]c4=O)n3n2)c1 [compound 252, 3-[6-(3-{[(2S)-1-(1H-tetrazol-1-yl)propan-2-yl]oxy}phenyl)imidazo[1,2-b]pyridazin-3-yl]-1,2-dihydropyridin-2-one]",> 8.00
21,"C[C@@H](Cn1cnnn1)Oc1cccc(-c2ccc3ncc(-c4cnccc4C#N)n3n2)c1 [Example 251, 3-[6-(3-{[(2S)-1-(1H-tetrazol-1-yl)propan-2-yl]oxy}phenyl)imidazo[1,2-b]pyridazin-3-yl]pyridine-4-carbonitrile]",> 8.00
22,COc1ncc(C#N)c(-c2cnc3ccc(-c4cccc(O[C@@H](C)Cn5cnnn5)c4)nn23)n1 [compound 362],> 8.00
23,C[C@@H](Cn1cnnn1)Oc1cncc(-c2ccc3ncn(-c4cc(Cl)ccc4C#N)c3n2)n1 [compound 445],7.00 to 8.00
24,C[C@@H](Cn1cnnn1)Oc1cccc(-c2ccc3ncn(-c4cccc(OC(F)F)c4C#N)c3n2)n1 [compound 398],7.00 to 8.00
25,COc1cc(F)cc(-n2cnc3ccc(-c4cc(O[C@@H](C)Cn5cnnn5)ccn4)nc32)c1C#N [compound 411],> 8.00
26,COc1cccc(-c2cnc3ccc(-c4ccc(F)c(O[C@@H](C)Cn5cnnn5)c4)nn23)n1 [compound 432],> 8.00
27,C[C@@H](Cn1cnnn1)Oc1cncc(-c2ccc3ncn(-c4cc(C(F)F)ccc4C#N)c3n2)n1 [compound 384],< 7.00
28,"COc1cc(F)cc(-c2cnc3ccc(-c4cccc(O[C@@H](C)Cn5cncn5)n4)nn23)c1C#N [Example 452, 4-fluoro-2-methoxy-6-[6-(6-{[(2S)-1-(1H-1,2,4-triazol-1-yl)propan-2-yl]oxy}pyridin-2-yl)imidazo[1,2-b]pyridazin-3-yl]benzonitrile]",> 8.00
29,Cc1cc(-c2cnc3ccc(-c4cccc(O[C@@H](C)Cn5cnnn5)c4)nn23)c(=O)n(C)c1 [compound 335],> 8.00
30,C[C@@H](Cn1cnnn1)Oc1cccc(-c2ccc3ncn(-c4cccc(C(F)F)c4C#N)c3n2)c1 [compound 395],> 8.00
